In patent publication US20160353738A1, “SYNERGISTIC HERBICIDAL COMPOSITION CONTAINING PENOXSULAM, TRICLOPYR AND BISPYRIBAC” (Dow AgroSciences LLC, priority 2014, published 2016):

Columns and labels:
[1] = system: Digitaria species (DIGSS); assay: Postemergence herbicidal activity of mixtures in the field (rice small plots), visual weed control; type: in vivo; conditions: 50 g ai/ha
Description: (§1) Bispyribac was used as Nominee® 100SC or Nominee® 400SC.
(§2) As such, Colby's equation simplifies to […]

[2] = system: Echinochloa colonum (L.) LINK (junglerice, ECHCO); assay: as above; type: in vivo; conditions: 30 DAA, 52 g ai/ha
Description: as §1, §2

[3] = system: Ischaemum rugosum (Saramollagrass, ISCRU); assay: as above; type: in vivo; conditions: 50 g ai/ha
Description: as §1, §2

[4] = system: Rottboellia exaltata (Guineafowlgrass, ROOEX); assay: as above; type: in vivo; conditions: 50 g ai/ha
Description: as §1, §2

[5] = system: Rice (Oryza Sativa, ORYSA); assay: Safening activity to rice in the field, visual crop injury; conditions: 50 g ai/ha
Procedure: The treated plots and control plots were rated blind at various intervals after application.
Colby's equation was used to determine the herbicidal effects expected from the mixtures (Colby, S. R. Calculation of the synergistic and antagonistic response of herbicide combinations. Weeds 1967, 15, 20-22).
However, the experiments described herein were performed such that active ingredients A and B were combined and only the efficacy of the combination was determined. As such, Colby's equation simplifies to […]

SMILES: COc1cc(OC)nc(Oc2cccc(Oc3nc(OC)cc(OC)n3)c2C(=O)[O-])n1.[Na+] [Bispyribac-Sodium, sodium 2,6-bis((4,6-dimethoxypyrimidin-2-yl)oxy)benzoate]
- Percent (%) Visual Control ([1]; 6 DAA): 93%
- Percent (%) Visual Control ([1]; 17 DAA): 88%
- Percent (%) Visual Control [2]: 86.25%
- Percent (%) Visual Control ([3]; 6 DAA): 0%
- Percent (%) Visual Control ([3]; 12 DAA): 30%
- Percent (%) Visual Control ([3]; 16 DAA): 46.8%
- Percent (%) Visual Control ([3]; 17 DAA): 0%
- Percent (%) Visual Control ([3]; 27 DAA): 9.25%
- Percent (%) Visual Control ([3]; 32 DAA): 0%
- Percent (%) Visual Control ([3]; 40 DAA): 0%
- Percent (%) Visual Control ([4]; 16 DAA): 87.3%
- Percent (%) Visual Control ([4]; 32 DAA): 69.5%
- Percent (%) Crop Injury ([5]; 6 DAA): 2.2%
- Percent (%) Crop Injury ([5]; 17 DAA): 0.9%
- Percent (%) Crop Injury ([5]; 27 DAA): 3%
